# Measurements published in patent US10774064B2 (Cadent Therapeutics, Inc., priority 2016, dated 2020).
# Target: T1, small-conductance Ca2+-activated K+ channels (SK channels, subtype 2) (Homo sapiens, UniProt Q9H2S1)
# T1 construct: expressed in transfected cells; host or cells: HEK293
# Experiment: whole-cell patch-clamp of ionic current through SK2 channels in HEK293 cells (SC100)
# Format: cell-based
# Conditions: whole-cell patch-clamp, HEK293 cells expressing SK2 channels; concentration that increases the basal current by 100%
# Method in brief: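 Whole-cell patch-clamp recording of current in HEK293 cells expressing SK2 channels. SC100 is the compound concentration that increases basal current by 100%.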
row,SMILES,SC100 (μM)
1,"NC(=O)OCc1cc(NC2CCC(F)(F)CC2)nc(-n2ccc(C3CC3)n2)n1 [IN11239-001-P1, (2-(3-cyclopropyl-1H-pyrazol-1-yl)-6-((4,4-difluorocyclohexyl)amino)pyrimidin-4-yl)methyl carbamate]",++ (++ means 200 nM-1000 nM)
2,"Cc1csc(-c2nc(C)cc(NC3CCC(F)(F)CC3)n2)c1 [IN11239-029-P1, N-(4,4-difluorocyclohexyl)-6-methyl-2-(4-methylthiophen-2-yl)pyrimidin-4-amine]",+ (+ means >1 uM)
3,CC(=O)c1ccn(-c2nc(NC3CCC(F)(F)CC3)cc(N3CCOCC3)n2)n1 [IN11243-031-P1],+ (+ means >1 uM)
4,CC(F)c1ccn(-c2nc(NC3CCC(F)(F)CC3)cc(N3CCOCC3)n2)n1 (stereo not shown) [IN11243-041-P1],+++ (+++ means <200 nM)
5,"Cc1cc(NC2CCC(F)(F)CC2)nc(-n2ccc(C(C)F)n2)n1 (stereo not shown) [IN11243-042-P1, N-(4,4-difluorocyclohexyl)-2-(3-(1-fluoroethyl)-1H-pyrazol-1-yl)-6-methylpyrimidin-4-amine]",++ (++ means 200 nM-1000 nM)
6,CC(F)(F)c1ccn(-c2nc(NC3CCC(F)(F)CC3)cc(N3CCOCC3)n2)n1 [IN11243-050-P2],++ (++ means 200 nM-1000 nM)
7,"Cc1cc(NC2CCC(F)(F)CC2)nc(-n2ccc(C3=CCCC3)n2)n1 [IN11250-007-P1, 2-(3-(cyclopent-1-en-1-yl)-1H-pyrazol-1-yl)-N-(4,4-difluorocyclohexyl)-6-methylpyrimidin-4-amine]",+ (+ means >1 uM)
8,"Cc1cc(NC2CCC(F)(F)CC2)nc(-n2ccc(C3CCCC3)n2)n1 [IN11250-017-P1, 2-(3-cyclopentyl-1H-pyrazol-1-yl)-N-(4,4-difluorocyclohexyl)-6-methylpyrimidin-4-amine]",+ (+ means >1 uM)
9,C=Cc1ccn(-c2nc(C)cc(NC3CCC(F)(F)CC3)n2)n1 [IN11250-031-P1],+ (+ means >1 uM)
10,Cc1ccn(-c2nc(NCCO)cc(NC3CCC(F)(F)CC3)n2)n1 [IN11250-032-P1],++ (++ means 200 nM-1000 nM)
11,"Cc1cc(NC2CCC(F)(F)CC2)nc(-n2ccc(C3(O)CC3)n2)n1 [IN11251-011-P1, 1-(1-(4-((4,4-difluorocyclohexyl)amino)-6-methylpyrimidin-2-yl)-1H-pyrazol-3-yl)cyclopropan-1-ol]",+ (+ means >1 uM)
12,"CCC(O)c1ccn(-c2nc(C)cc(NC3CCC(F)(F)CC3)n2)n1 (stereo not shown) [IN11251-011-P2, 1-(1-(4-((4,4-difluorocyclohexyl)amino)-6-methylpyrimidin-2-yl)-1H-pyrazol-3-yl)propan-1-ol]",+ (+ means >1 uM)
13,"Cc1cc(NC2CCC(F)(F)CC2)nc(-n2ccc(C(=O)OC(C)C)n2)n1 [IN11251-020-P1, isopropyl 1-(4-((4,4-difluorocyclohexyl)amino)-6-methylpyrimidin-2-yl)-1H-pyrazole-3-carboxylate]",+ (+ means >1 uM)
14,"COC(=O)N1CCC(O)(c2cc(NC3CCC(F)(F)CC3)nc(-n3ccc(C)n3)c2)C1 (stereo not shown) [IN11251-035-P1, methyl 3-(2-((4,4-difluorocyclohexyl)amino)-6-(3-methyl-1H-pyrazol-1-yl)pyridin-4-yl)-3-hydroxypyrrolidine-1-carboxylate]",++ (++ means 200 nM-1000 nM)
15,COC(=O)N(C)Cc1cc(NC2CCC(F)(F)CC2)nc(-c2nc(C)cs2)c1 [IN11251-043-P1],++ (++ means 200 nM-1000 nM)
16,"Cc1cc(NC2CCC(F)(F)CC2)nc(CO)n1 [IN11273-001-P1, (4-((4,4-difluorocyclohexyl)amino)-6-methylpyrimidin-2-yl) methanol]",+ (+ means >1 uM)
17,"COC(=O)c1nc(C)cc(NC2CCC(F)(F)CC2)n1 [IN11273-006-P1, methyl 4-((4,4-difluorocyclohexyl)amino)-6-methylpyrimidine-2-carboxylate]",+ (+ means >1 uM)
18,"Cc1cc(NC2CCC(F)(F)CC2)nc(Cn2ccc(C)n2)n1 [IN11273-015-P1, N-(4,4-difluorocyclohexyl)-6-methyl-2-((3-methyl-1H-pyrazol-1-yl)methyl)pyrimidin-4-amine]",+ (+ means >1 uM)
19,"Cc1cc(NC2CCC(F)(F)CC2)nc(Cn2nccc2C)n1 [IN11273-015-P2, N-(4,4-difluorocyclohexyl)-6-methyl-2-((5-methyl-1H-pyrazol-1-yl)methyl)pyrimidin-4-amine]",+ (+ means >1 uM)
20,"Cc1cc(NC2CCC(F)(F)CC2)nc(CC#N)n1 [IN11273-018-P1, 2-(4-((4,4-difluorocyclohexyl)amino)-6-methylpyrimidin-2-yl) acetonitrile]",+ (+ means >1 uM)
21,Cc1ccn(-c2nc(NC3CCC(F)(F)CC3)cc(N3CC(=O)N(C)C(=O)C3)n2)n1 [IN11288-005-P1],++ (++ means 200 nM-1000 nM)
22,Cc1ccn(-c2nc(C#N)cc(NC3CCC(F)(F)CC3)n2)n1 [IN11288-025-P1],+ (+ means >1 uM)
23,"OCCN(CCO)c1cc(NC2CCC(F)(F)CC2)nc(-n2ccc(CO)n2)n1 [IN11337-019-P1, 2,2′-((6-((4,4-difluorocyclohexyl)amino)-2-(3-(hydroxymethyl)-1H-pyrazol-1-yl)pyrimidin-4-yl)azanediyl)bis-(ethan-1-ol)]",+ (+ means >1 uM)
24,"Cc1cn(-c2cc(OC3COC3)cc(NC3CCC(F)(F)CC3)n2)nc1CF [NSSy5615, N-(4,4-difluorocyclohexyl)-6-(3-(fluoromethyl)-4-methyl-1H-pyrazol-1-yl)-4-(oxetan-3-yloxy)pyridin-2-amine]",++ (++ means 200 nM-1000 nM)
25,"FCc1ccn(-c2nc(NC3CCC(F)(F)CC3)cc(OC3CC(F)C3)n2)n1 (stereo not shown) [NSSy5618, N-(4,4-difluorocyclohexyl)-6-(3-fluorocyclobutoxy)-2-(3-(fluoromethyl)-1H-pyrazol-1-yl)pyrimidin-4-amine]",+ (+ means >1 uM)
26,"FCc1ccn(-c2nc(NC3CCC(F)(F)CC3)cc(OC3CC(F)(F)C3)n2)n1 [NSSy5619, 6-(3,3-difluorocyclobutoxy)-N-(4,4-difluorocyclohexyl)-2-(3-(fluoromethyl)-1H-pyrazol-1-yl)pyrimidin-4-amine]",+ (+ means >1 uM)
27,"CC(C)C(=O)NCc1cc(NC2CCC(F)(F)CC2)nc(-n2ccc(CF)n2)c1 [NSSy5620, N-((2-((4,4-difluorocyclohexyl)amino)-6-(3-(fluoromethyl)-1H-pyrazol-1-yl)pyridin-4-yl)methyl)isobutyramide]",++ (++ means 200 nM-1000 nM)
28,"CC(=O)NCc1cc(NC2CCC(F)(F)CC2)nc(-n2cc(C)c(CF)n2)c1 [NSSy5622, N-((2-((4,4-difluorocyclohexyl)amino)-6-(3-(fluoromethyl)-4-methyl-1H-pyrazol-1-yl)pyridin-4-yl)methyl)acetamide]",++ (++ means 200 nM-1000 nM)
